Format in all cases: cell-based
The test system of one series is Jurkat. The series can be described thus: Differential nuclear staining (DNS) cytotoxicity assay. The note with it: Homo sapiens, Jurkat, 48 h.
A further series relates to KCL22. Described as above. The note with it: Homo sapiens.
Another series deals with HT-29. Described as above. As to conditions: Homo sapiens, HT-29, 48 h.
In series [1] the test system is nine tumorigenic cell lines. The series can be described thus: DNS assay, summary over the cancer cell line panel. The note with it: for CC50: 48 h, read-out: average CC50 towards the nine tumorigenic cell lines.
Protocol: Several cancer and non-cancerous cell lines were used for this analysis. […] Additionally, all media used for cell culture was supplemented with 10% heat-inactivated fetal bovine serum (FBS), and a mixture of 25 μg/ml amphotericin B, 1,000 U/ml penicillin, and 1,000 μg/ml streptomycin. […] All cell lines were grown in an incubator supplemented with 5% CO2 at 37 °C.
Cytotoxic activity was evaluated through the DNS assay [17, 18]. […] For the experiment, each cell line was plated at a density of 10,000 cells per well (96-well plate) in 100 μl media and placed in the incubator overnight under cell culture conditions. Cells were then treated with varying concentrations of the compound of interest for 48 h. […] The IN Cell 2000 analyzer, a high-content analyzer (HCA), was used to image the plates (GE Healthcare). For quantitative analysis, images were segmented through the IN Cell Analyzer Workstation 3.2 software (GE Healthcare). […] Each compound concentration and each control were assessed in triplicate.
Another series deals with CCRF-CEM. As to the kind of experiment: Differential nuclear staining (DNS) cytotoxicity assay. The note with it: Homo sapiens, CCRF-CEM, 48 h.
The subject of the next series is HL-60. Described as above. As to conditions: for CC50: Homo sapiens.
The test system of another series is Ramos. Described as above. As to conditions: Homo sapiens, Ramos, 48 h.
The test system of another series is COLO 205. The series is described as above. The note with it: Homo sapiens, COLO 205, 48 h.
The next series concerns MDA-MB-231. The description is as above. As to conditions: Homo sapiens, MDA-MB-231, 48 h.
A further series concerns K562. The series is described as above. As to conditions: Homo sapiens, K562, 48 h.
Assay in series [2]: as above
Description: (§1) All cell lines were obtained commercially from ATCC (American Type Culture Collection). Several cancer and non-cancerous cell lines were used for this analysis. […] Solid tumor cancer cell lines included MDA-MB-231 (Adenocarcinoma; HTB-26) cultured in DMEM medium, HT-29 (Colorectal Adenocarcinoma; HTB-38) cultured in McCoy’s 5A medium, and COLO 205 (Colorectal Adenocarcinoma; CCL-222) cultured in RPMI-1640 medium. Non-cancerous cell lines included Hs27 (No disease, foreskin; CRL-1634) cultured in DMEM medium and MCF-10A (Fibrocystic Disease; CRL-10317) cultured in DMEM/F12 medium supplemented with 20 ng/ml epidermal growth factor, 0.5 μg/ml hydrocortisone, and 10 μg/ml insulin. Additionally, all media used for cell culture was supplemented with 10% heat-inactivated fetal bovine serum (FBS), and a mixture of 25 μg/ml amphotericin B, 1,000 U/ml penicillin, and 1,000 μg/ml streptomycin. The HL-60 cell line was supplemented with 20% FBS and the same antibiotic mixture described. All cell lines were grown in an incubator supplemented with 5% CO2 at 37 °C.
(§2) Cytotoxic activity was evaluated through the DNS assay [17, 18]. This assay involves labeling live and dead cells with two nucleic acid intercalators, Hoechst 33342 and propidium iodide (PI). Hoechst 33342 stains all cells (healthy and dead), but PI stains only dead or dying cells with a compromised cell membrane [17, 18]. For the experiment, each cell line was plated at a density of 10,000 cells per well (96-well plate) in 100 μl media and placed in the incubator overnight under cell culture conditions. Cells were then treated with varying concentrations of the compound of interest for 48 h. […] For quantitative analysis, images were segmented through the IN Cell Analyzer Workstation 3.2 software (GE Healthcare). […] Each compound concentration and each control were assessed in triplicate. […] SCI was calculated using the following equation: CC50 of the non-cancer cell line/CC50 of the cancer cell line [20].
The note with it: human, Hs27 cells (non-cancerous) versus Jurkat cells (cancer); CC50 Hs27 / CC50 Jurkat; read-out: SCI (Selective Cytotoxicity Index).

The next series concerns ATF3 in HL-60 cells. The series can be described thus: RT-qPCR gene expression. The note with it: HL-60, 6 h, P3 […], P4 4 μM, P5 4 μM, normalised to ACTB, 2^−ΔΔCt. (In qPCR the cycle at which signal appears reflects the starting amount.)
A short description of series [3]: Differential nuclear staining (DNS) cytotoxicity assay. As to conditions: human, Hs27 cells (non-cancerous) versus KCL22 cells (cancer); CC50 Hs27 / CC50 KCL22; read-out: SCI (Selective Cytotoxicity Index).
Description: as §1, §2
The subject of series [4] is HL-60 cells. The series can be described thus: Annexin V-FITC assay (phosphatidylserine externalization). As to conditions: HL-60, 24 h, CC50 concentration (P3 […], P4 2 μM, P5 2 μM).
Protocol: The annexin V-FITC assay was used to evaluate the induction of apoptosis (Beckman Coulter; IM3546) [21]. HL-60 cells were seeded at a density of 100,000 cells in 1 ml complete medium. Cells were treated with the three compounds of interest for 24 h. […] Controls used were a vehicle control (0.1% v/v DMSO), an apoptosis-inducing positive control (1 mM H2O2), and an untreated cell negative control. Following treatment, cells were collected and stained with both PI and annexin V-FITC according to the manufacturer’s instructions (Beckman Coulter; IM3546). Samples were immediately read by flow cytometry (Gallios; Beckman Coulter). Data analysis was accomplished with Kaluza software (Kaluza Analysis Software; Beckman Coulter).
In series [5] the test system is HL-60 cells. The series can be described thus: Cell cycle analysis with NIM-DAPI. The note with it: HL-60, 72 h.
Protocol: Controls included were a vehicle (0.1% v/v DMSO), positive (1 mM H2O2), and negative (untreated cells) control. Subsequently, cells were collected in flow cytometry tubes and centrifuged at 262g for 5 min. Then, the supernatant was removed, and the cell pellet was re-suspended in a mixture of 100 μl of PBS and 200 μl of NIM-DAPI. Samples were immediately read and analyzed through flow cytometry (Gallios & Kaluza Analysis Software; Beckman Coulter). Approximately 10,000 events were acquired per sample. Data are represented as plots that display peaks (Fig. 6e) which represent fragments of DNA (Sub-G0/1 phase), cells before they replicate DNA (G0/1 phase), active replication of DNA (S phase), and post-replicative stage while entering mitosis (G2M phase) [23].
The nature of series [6]: Differential nuclear staining (DNS) cytotoxicity assay. As to conditions: human, Hs27 cells (non-cancerous) versus HT-29 cells (cancer); CC50 Hs27 / CC50 HT-29; read-out: SCI (Selective Cytotoxicity Index).
Description: (§3) All cell lines were obtained commercially from ATCC (American Type Culture Collection). Several cancer and non-cancerous cell lines were used for this analysis. […] Solid tumor cancer cell lines included MDA-MB-231 (Adenocarcinoma; HTB-26) cultured in DMEM medium, HT-29 (Colorectal Adenocarcinoma; HTB-38) cultured in McCoy’s 5A medium, and COLO 205 (Colorectal Adenocarcinoma; CCL-222) cultured in RPMI-1640 medium. Non-cancerous cell lines included Hs27 (No disease, foreskin; CRL-1634) cultured in DMEM medium and MCF-10A (Fibrocystic Disease; CRL-10317) cultured in DMEM/F12 medium supplemented with 20 ng/ml epidermal growth factor, 0.5 μg/ml hydrocortisone, and 10 μg/ml insulin. Additionally, all media used for cell culture was supplemented with 10% heat-inactivated fetal bovine serum (FBS), and a mixture of 25 μg/ml amphotericin B, 1,000 U/ml penicillin, and 1,000 μg/ml streptomycin. […] All cell lines were grown in an incubator supplemented with 5% CO2 at 37 °C.
(§4) Cytotoxic activity was evaluated through the DNS assay [17, 18]. This assay involves labeling live and dead cells with two nucleic acid intercalators, Hoechst 33342 and propidium iodide (PI). Hoechst 33342 stains all cells (healthy and dead), but PI stains only dead or dying cells with a compromised cell membrane [17, 18]. For the experiment, each cell line was plated at a density of 10,000 cells per well (96-well plate) in 100 μl media and placed in the incubator overnight under cell culture conditions. Cells were then treated with varying concentrations of the compound of interest for 48 h. Two hours before incubation elapsed, 10 μl of a dye mixture consisting of phosphate-buffered saline (PBS), Hoechst 33342 (1 μg/ml final; Invitrogen, H1399), and PI (1 μg/ml final; Invitrogen, P1304MP) was added to each well. […] For quantitative analysis, images were segmented through the IN Cell Analyzer Workstation 3.2 software (GE Healthcare). […] Each compound concentration and each control were assessed in triplicate. […] SCI was calculated using the following equation: CC50 of the non-cancer cell line/CC50 of the cancer cell line [20].
Assay in series [7]: as above
Description: as §3, §4
As to conditions: human, Hs27 cells (non-cancerous) versus CCRF-CEM cells (cancer); CC50 Hs27 / CC50 CCRF-CEM; read-out: SCI (Selective Cytotoxicity Index).

A further series has as its system MYC in HL-60 cells. As to the kind of experiment: RT-qPCR gene expression. As to conditions: HL-60, 6 h, P3 […], P4 4 μM, P5 4 μM, normalised to ACTB, 2^−ΔΔCt.
In the next series the test system is HMOX-1 in HL-60 cells. As to the kind of experiment: RT-qPCR gene expression. The note with it: HL-60, 6 h, P3 […], P4 4 μM, P5 4 μM, normalised to ACTB, 2^−ΔΔCt, two independent experiments.
In series [8] the test system is HL-60 cells. The series can be described thus: Mitochondrial membrane potential (ΔΨm) polychromatic assay (JC-1). The note with it: HL-60, 5 h, 4 μM.
Protocol: The cationic JC-1 (5′,6,6′-tetrachloro-1,1′,3,3′-tetraethylben zimidazolylcarbocyanine iodide) dye can be used to monitor mitochondrial membrane potential (Invitrogen; M34152). A red signal (JC-1 aggregates) indicates an intact polarized mitochondrial membrane, while a green signal (JC-1 monomers) indicates a depolarized mitochondrial membrane. […] A vehicle, positive, and negative control (as previously described) were included as well. Following incubation, cells were collected and stained per the manufacturer’s instructions with a final concentration of 2 μM JC-1 dye. Samples were then examined utilizing flow cytometry (Gallios; Beckman Coulter). Analysis of the subsequent data was completed using Kaluza software (Kaluza Analysis Software; Beckman Coulter).
Series [9] is described as follows: Differential nuclear staining (DNS) cytotoxicity assay. As to conditions: human, Hs27 cells (non-cancerous) versus HL-60 cells (cancer); CC50 Hs27 / CC50 HL-60; read-out: SCI (Selective Cytotoxicity Index).
Protocol: All cell lines were obtained commercially from ATCC (American Type Culture Collection). Several cancer and non-cancerous cell lines were used for this analysis. […] Non-cancerous cell lines included Hs27 (No disease, foreskin; CRL-1634) cultured in DMEM medium and MCF-10A (Fibrocystic Disease; CRL-10317) cultured in DMEM/F12 medium supplemented with 20 ng/ml epidermal growth factor, 0.5 μg/ml hydrocortisone, and 10 μg/ml insulin. Additionally, all media used for cell culture was supplemented with 10% heat-inactivated fetal bovine serum (FBS), and a mixture of 25 μg/ml amphotericin B, 1,000 U/ml penicillin, and 1,000 μg/ml streptomycin. The HL-60 cell line was supplemented with 20% FBS and the same antibiotic mixture described. All cell lines were grown in an incubator supplemented with 5% CO2 at 37 °C.
Cytotoxic activity was evaluated through the DNS assay [17, 18]. This assay involves labeling live and dead cells with two nucleic acid intercalators, Hoechst 33342 and propidium iodide (PI). Hoechst 33342 stains all cells (healthy and dead), but PI stains only dead or dying cells with a compromised cell membrane [17, 18]. For the experiment, each cell line was plated at a density of 10,000 cells per well (96-well plate) in 100 μl media and placed in the incubator overnight under cell culture conditions. Cells were then treated with varying concentrations of the compound of interest for 48 h. Two hours before incubation elapsed, 10 μl of a dye mixture consisting of phosphate-buffered saline (PBS), Hoechst 33342 (1 μg/ml final; Invitrogen, H1399), and PI (1 μg/ml final; Invitrogen, P1304MP) was added to each well. The IN Cell 2000 analyzer, a high-content analyzer (HCA), was used to image the plates (GE Healthcare). For quantitative analysis, images were segmented through the IN Cell Analyzer Workstation 3.2 software (GE Healthcare). […] Each compound concentration and each control were assessed in triplicate.
For the experiments conducted, the concentrations used correspond to either CC50 or CC50 × 2 in the specified cell line. […] Therefore, we used a CC10 and a CC30 concentration.
Assay in series [10]: as above
Description: as §3, §4
The note with it: human, Hs27 cells (non-cancerous) versus Ramos cells (cancer); CC50 Hs27 / CC50 Ramos; read-out: SCI (Selective Cytotoxicity Index).

Assay in series [11]: as above
Description: as §3, §4
The note with it: human, Hs27 cells (non-cancerous) versus COLO 205 cells (cancer); CC50 Hs27 / CC50 COLO 205; read-out: SCI (Selective Cytotoxicity Index).

A further series deals with PMAIP1 in HL-60 cells. The series can be described thus: RT-qPCR gene expression. The note with it: HL-60, 6 h, P3 […], P4 4 μM, P5 4 μM, normalised to ACTB, 2^−ΔΔCt.
Series [12] concerns caspase-3 activation in HL-60 cells. As to the kind of experiment: Caspase-3 assay (NucView 488). As to conditions: HL-60, 8 h; concentration not given.
A short description of series [13]: Differential nuclear staining (DNS) cytotoxicity assay. As to conditions: human, MCF-10A non-cancerous cells.
Description: as §1
Cytotoxic activity was evaluated through the DNS assay [17, 18]. […] For quantitative analysis, images were segmented through the IN Cell Analyzer Workstation 3.2 software (GE Healthcare). […] Each compound concentration and each control were assessed in triplicate.
A short description of series [14]: DNS assay, summary over the non-cancerous cell lines. The note with it: human, Hs27 and MCF-10A non-cancerous cells, mean of two non-cancerous cell lines, read-out: average CC50 towards Hs27 and MCF-10A.
Description: (§5) All cell lines were obtained commercially from ATCC (American Type Culture Collection). Several cancer and non-cancerous cell lines were used for this analysis. […] Solid tumor cancer cell lines included MDA-MB-231 (Adenocarcinoma; HTB-26) cultured in DMEM medium, HT-29 (Colorectal Adenocarcinoma; HTB-38) cultured in McCoy’s 5A medium, and COLO 205 (Colorectal Adenocarcinoma; CCL-222) cultured in RPMI-1640 medium. Non-cancerous cell lines included Hs27 (No disease, foreskin; CRL-1634) cultured in DMEM medium and MCF-10A (Fibrocystic Disease; CRL-10317) cultured in DMEM/F12 medium supplemented with 20 ng/ml epidermal growth factor, 0.5 μg/ml hydrocortisone, and 10 μg/ml insulin. Additionally, all media used for cell culture was supplemented with 10% heat-inactivated fetal bovine serum (FBS), and a mixture of 25 μg/ml amphotericin B, 1,000 U/ml penicillin, and 1,000 μg/ml streptomycin. The HL-60 cell line was supplemented with 20% FBS and the same antibiotic mixture described. […]
(§6) Cytotoxic activity was evaluated through the DNS assay [17, 18]. […] For quantitative analysis, images were segmented through the IN Cell Analyzer Workstation 3.2 software (GE Healthcare). […] Each compound concentration and each control were assessed in triplicate. […] SCI was calculated using the following equation: CC50 of the non-cancer cell line/CC50 of the cancer cell line [20].
The nature of series [15]: Differential nuclear staining (DNS) cytotoxicity assay. The note with it: human, Hs27 non-cancerous cells.
Description: as §5, §6
Assay in series [16]: as above
Description: as §3, §4
The note with it: human; CC50 MCF-10A / CC50 MDA-MB-231; read-out: SCI (Selective Cytotoxicity Index).

In series [17] the test system is HL-60 cells. The series can be described thus: Reactive oxygen species (ROS) assay (carboxy-H2DCFDA). The note with it: HL-60, 18 h.
Protocol: Reactive oxygen species (ROS) generation can be quantified using the 6-carboxy-2',7'-dichlorodihydrofluorescein diacetate (carboxy-H2DCFDA) dye (Invitrogen; Molecular Probes, C400) [19, 22]. This non-fluorescent dye shifts to a green fluorescent form as oxidation, induced by ROS, occurs within the cell. Therefore, a green fluorescent signal, corresponding to the oxidized form of carboxy-H2DCFDA, indicates ROS generation. Cells (HL-60) were plated overnight at a density of 100,000 cells in 1 ml. […] Samples were collected, centrifuged at 262g for 5 min, and re-suspended in 1 ml PBS to remove the complete medium. Then, cells were loaded with a final concentration of 10 μM carboxy-H2DCFDA dye for 45 min at 37 °C. Following incubation with dye, cells were centrifuged at 262g for 5 min and re-suspended in 500 μl PBS. Then, samples were processed using flow cytometry (Gallios; Beckman Coulter). Data analysis was completed with the Kaluza software (Kaluza Analysis Software; Beckman Coulter). Controls used were the same as mentioned before (0.1% v/v DMSO, 1 mM H2O2, and untreated cells) with an additional unstained (not loaded with dye) control to observe the normal population of cells.
Another series concerns CHAC1 in HL-60 cells. As to the kind of experiment: RT-qPCR gene expression. As to conditions: HL-60, 6 h, P3 […], P4 4 μM, P5 4 μM, normalised to ACTB, 2^−ΔΔCt.
The nature of series [18]: Differential nuclear staining (DNS) cytotoxicity assay. The note with it: human, Hs27 cells (non-cancerous) versus K562 cells (cancer); CC50 Hs27 / CC50 K562; read-out: SCI (Selective Cytotoxicity Index).
Description: as §1, §2
The mark [19] stands for this setting: HL-60, concentration used for 72 h cell cycle analysis.

Like-named read-outs stand apart in the source and are kept apart here.

Protocol for ATF3 in HL-60 cells: (§7) After the incubation period elapsed, cell pellets were washed by centrifuging at 262g for 5 min and re-suspending in 1 ml of PBS. Dry cell pellets were used for RNA extraction. RNA was extracted immediately according to the manufacturer’s instructions of the RNeasy Mini Kit (Qiagen; 74104). A QIAshredder was used to lyse the cells, and the optional DNase I digestion was also accomplished. Three biological replicates were used for each treatment. RNA was stored at −80 °C overnight, then the RNA was used to synthesize cDNA using the RT^2 HT First Strand Kit (Qiagen; 330,411). The amount of RNA used per sample was 500 ng, which was quantified using a NanoDrop ND-1000 system (ThermoFisher Scientific). RNA was diluted using RNase-free water to obtain the desired concentration (500 ng) in 9 μl. As per the manufacturer’s protocol, we incubated 9 μl of the sample with 6 μl GE2 (gDNA elimination buffer) for 5 min at 37 °C, then we added 6 μl BC4 Reverse Transcriptase Mix and incubated for 15 min at 42 °C, 5 min at 95 °C and, finally, a 4 °C hold. […] For data analysis, gene expression levels were normalized to the housekeeping gene (ACTB) and quantified using the comparative Ct method (2^−ΔΔCt). Fold change differences were calculated by comparing gene expression levels of compound treatment versus vehicle control.
Description for CCRF-CEM: as §3, §4
Protocol for CHAC1 in HL-60 cells: as §7
Description for COLO 205: as §3, §4
Protocol for HMOX-1 in HL-60 cells: as §7
Description for HT-29: as §3, §4
Description for Jurkat: as §1, §2
Description for K562: as §1, §2
Description for KCL22: as §1, §2
Description for MDA-MB-231: as §3, §4
Protocol for MYC in HL-60 cells: as §7
Protocol for PMAIP1 in HL-60 cells: as §7
Description for Ramos: as §3, §4

Take `N[C@@H](Cc1ccc(N(CCCl)CCCl)cc1)C(=O)O` [Melphalan, reference compound]: the CC50 in the series with Jurkat came to 1910 nM; with KCL22 (KCL-22, 48 h), 81.3 µM; with HT-29 it was 21.1 µM; in series [1], 17.8 µM; with CCRF-CEM it was 3170 nM; in the series with HL-60 (HL-60, 48 h), 1570 nM. Besides, the CC50 in the series on Ramos was determined as 2050 nM; with COLO 205, 20.4 µM; in the series with MDA-MB-231, 9.23 µM; in the series with K562 it was 19.6 µM.
Turning to `O=C1/C(=C/c2ccc(O)c(CN3CCOCC3)c2)CNC/C1=C\c1ccc(O)c(CN2CCOCC2)c1` [P5], the CC50 with Jurkat (DNS assay, read-out: CC50) was found to be 910 nM; with KCL22 (KCL-22, KCL22, 48 h, DNS assay, read-out: CC50), 1.57 µM; in the series with HT-29 (DNS assay, read-out: CC50) it was 1.93 µM; in series [1] (DNS assay, mean over nine cell lines), 1.52 µM; in the series with CCRF-CEM (DNS assay, read-out: CC50) it was 650 nM; in the series with HL-60 (HL-60, 48 h, DNS assay, read-out: CC50), 740 nM. Further, the CC50 was determined as 2000 nM in the series with HL-60 (HL-60, value used to set treatment concentrations, read-out: CC50 in HL-60 (concentrations for cell death induction)); 1060 nM in the series with Ramos (DNS assay, read-out: CC50); 0.8 µM in the series with COLO 205 (DNS assay, read-out: CC50); 1.74 µM with MDA-MB-231 (DNS assay, read-out: CC50); 4.25 µM in the series with K562 (DNS assay, read-out: CC50). The selectivity ratio at 48 h in [2] is 6.05; in series [3] it was 3.49; in series [6], 2.85; in [7] it was 8.42; in series [9], 7.47; in [10], 5.19. Besides, the results for the selectivity ratio at 48 h in series [11], in series [16] and in [18] were 6.87, 1.26 and 1.29, respectively. Besides, in the series on ATF3 in HL-60 cells, the “fold-change difference of ATF3 expression versus vehicle” value worked out at 204.56. Also, in the series with HL-60 cells [4], the “increase of Annexin V-FITC-positive cells in comparison to DMSO” value was ~ 30%. In the series on HL-60 cells [5] (0.4 μM), the “increase in the percentage of cells arrested at the G2/M phase versus DMSO” value is recorded as ~ 9%. Also, the “change in the percentage of cells in the S phase compared to DMSO” value in the series with HL-60 cells [5] (printed as double the CC50 concentration) is reported as “significant decrease”. The “times more potent than melphalan” value in series [1] (ratio of average CC50 values, nine tumorigenic cell lines) was 11.7. For the same molecule, the “fold-change difference of MYC expression versus vehicle” value with MYC in HL-60 cells is recorded as −4.15. Also, the “fold-change difference of HMOX-1 expression versus vehicle” value with HMOX-1 in HL-60 cells was 2464.89. Also, the “increase in the cell population with a depolarized mitochondrial membrane in comparison to DMSO” value with HL-60 cells [8] is ~ 10%. The molecule further displayed a CC10 in the series on HL-60 (setting [19]) of 0.4 µM. In the series with HL-60 (setting [19]), this molecule returned a CC30 of 1.2 µM. In the series on PMAIP1 in HL-60 cells, the “fold-change difference of PMAIP1 expression versus vehicle” value was determined as 79.50. Further, the “cells with active caspase-3, as compared to DMSO” value in series [12] is reported as ~ 49%. The CC50 at 48 h in series [13] turned out to be 2180 nM; in series [14], 3.84 µM; in series [15], 5.5 µM. Moreover, the “increase of cells positive for ROS production compared to DMSO” value was ~ 38% in the series with HL-60 cells [17] (P3 […], P4 2 μM, P5 2 μM) and ~ 65% in the series with HL-60 cells [17] (twice the concentration (P3 […], P4 4 μM, P5 4 μM)). In the series with CHAC1 in HL-60 cells, the “fold-change difference of CHAC1 expression versus vehicle” value was 106.96.
